Laboratory results published in paper PMC9151520 (Archives of Toxicology, 2022).
pEC50: −log10 of the molar value. Several values for one entry are separate records, joined by “and”; a condition that tells them apart may be missing. Equal values may be shown once. Where a name gives a salt, the structure may show the parent alone. Read-outs that look alike come from different tables or passages of the source.

How the values were obtained:
[1] = test system: p53 signaling (p53RE-bla HCT-116 cells); test: cells; format: cell-based
[2] = test system: p53 signaling (p53RE-bla HCT-116 cells)
[3] = test system: p53 signaling (p53RE-bla HCT-116 cells); remark: listed apart in the source
[4] = test system: p53RE-bla HCT-116 cells
[5] = read-out: EC50, p53 activation, primary screening
[6] = read-out: p53 activation EC50, cherry pick confirmation
[7] = read-out: p53 activation EC50, primary screening
[8] = Homo sapiens, HCT-116, read-out: p53 activation EC50, cherry pick confirmation
[9] = Homo sapiens, HCT-116, read-out: p53 activation EC50, primary screening
[10] = Homo sapiens, HCT-116, read-out: p53 activation efficacy, cherry pick confirmation
[11] = Homo sapiens, HCT-116, read-out: p53 activation efficacy, primary screening

## CCC[CH2][Sn]([Cl])([Cl])[CH2]CCC [Dibutyltin dichloride]
[1]
  EC50, p53 activation, cherry pick confirmation: inactive
  Efficacy, p53 activation, cherry pick confirmation: inactive
  Efficacy, p53 activation, primary screening: 73.9367
[1]; [5]
  pEC50: 4.57
[2]
  EC50, p53 activation, cherry pick confirmation: inactive
  EC50, p53 activation, primary screening: inactive
  Efficacy, p53 activation, cherry pick confirmation: inactive
  Efficacy, p53 activation, primary screening: inactive
[3]
  EC50, p53 activation, cherry pick confirmation: inactive
  EC50, p53 activation, primary screening: inactive
  Efficacy, p53 activation, cherry pick confirmation: inactive
  Efficacy, p53 activation, primary screening: inactive
[4]
  EC50, viability, primary screening: inactive

## CO.COc1cc(Nc2c(C#N)cnc3cc(OCCCN4CCN(C)CC4)c(OC)cc23)c(Cl)cc1Cl [Bosutinib methanoate]
[1]
  p53 activation efficacy, cherry pick confirmation: 36.685
  p53 activation efficacy, primary screening: 29.3917
[1]; [6]
  pEC50: 4.76
[1]; [7]
  pEC50: 4.81
[2]
  p53 activation EC50, cherry pick confirmation: inactive
  p53 activation EC50, primary screening: inactive
  p53 activation efficacy, cherry pick confirmation: inactive
  p53 activation efficacy, primary screening: inactive
[3]
  p53 activation EC50, cherry pick confirmation: inactive
  p53 activation EC50, primary screening: inactive
  p53 activation efficacy, cherry pick confirmation: inactive
  p53 activation efficacy, primary screening: inactive
[4]
  Viability EC50, cherry pick confirmation: inactive
  Viability EC50, primary screening: inactive
  Viability efficacy, cherry pick confirmation: inactive
  Viability efficacy, primary screening: inactive

## Cl.Nc1ccc2cc3ccc(N)cc3nc2c1 [Proflavin hydrochloride]
[1]
  p53 activation efficacy, cherry pick confirmation: 356.887
  p53 activation efficacy, primary screening: 211.641
[1]; [6]
  pEC50: 5.44
[1]; [7]
  pEC50: 5.54
[2]
  p53 activation EC50, cherry pick confirmation: inactive
  p53 activation EC50, primary screening: inactive
  p53 activation efficacy, cherry pick confirmation: inactive
  p53 activation efficacy, primary screening: inactive
[3]
  p53 activation EC50, cherry pick confirmation: inactive
  p53 activation EC50, primary screening: inactive
  p53 activation efficacy, cherry pick confirmation: inactive
  p53 activation efficacy, primary screening: inactive
[4]
  Viability EC50, cherry pick confirmation: inactive
  Viability EC50, primary screening: inactive
  Viability efficacy, cherry pick confirmation: inactive
  Viability efficacy, primary screening: inactive

## O=c1cc(-c2ccc(O)cc2)oc2cc(O)cc(O)c12 [Apigenin]
[1]; [8]
  pEC50: 4.33
[1]; [9]
  pEC50: 4.74
[1]; [10]
  Emax: 32.2%
[1]; [11]
  Emax: 51.2%
[2]
  p53 activation EC50, cherry pick confirmation: inactive
  p53 activation EC50, primary screening: inactive
  p53 activation efficacy, cherry pick confirmation: inactive
  p53 activation efficacy, primary screening: inactive
[3]
  p53 activation EC50, cherry pick confirmation: inactive
  p53 activation EC50, primary screening: inactive
  p53 activation efficacy, cherry pick confirmation: inactive
  p53 activation efficacy, primary screening: inactive
[4]
  Viability EC50, cherry pick confirmation: inactive
  Viability EC50, primary screening: inactive
  Viability efficacy, cherry pick confirmation: inactive
  Viability efficacy, primary screening: inactive

## Cl.Nc1ccn([C@@H]2O[C@H](CO)[C@@H](O)C2(F)F)c(=O)n1
[1]
  p53 activation efficacy, cherry pick confirmation: 111.507
  p53 activation efficacy, primary screening: 94.321
[1]; [6]
  pEC50: 6.69
[1]; [7]
  pEC50: 6.76
[2]
  p53 activation EC50, cherry pick confirmation: inactive
  p53 activation EC50, primary screening: inactive
  p53 activation efficacy, cherry pick confirmation: inactive
  p53 activation efficacy, primary screening: inactive
[3]
  p53 activation EC50, cherry pick confirmation: inactive
  p53 activation EC50, primary screening: inactive
  p53 activation efficacy, cherry pick confirmation: inactive
  p53 activation efficacy, primary screening: inactive
[4]
  Viability EC50, cherry pick confirmation: inactive
  Viability EC50, primary screening: inactive
  Viability efficacy, cherry pick confirmation: inactive
  Viability efficacy, primary screening: inactive

## COP(=O)(OC)Oc1ccc([N+](=O)[O-])cc1 [Methylparaoxon]
[1]
  EC50, p53 activation, cherry pick confirmation: inactive
  EC50, p53 activation, primary screening: inactive
  Efficacy, p53 activation, cherry pick confirmation: inactive
  Efficacy, p53 activation, primary screening: inactive
[2]
  pEC50: 4.70
[2]; read-out: EC50, p53 activation, cherry pick confirmation
  pEC50: 4.70
[3]
  EC50, p53 activation, cherry pick confirmation: inactive
[4]
  EC50, viability, cherry pick confirmation: inactive
  EC50, viability, primary screening: inactive
  Efficacy, viability, cherry pick confirmation: inactive
  Efficacy, viability, primary screening: inactive

## O=C(O)Cc1cc(I)c(Oc2ccc(O)c(I)c2)c(I)c1 [Tiratricol]
[1]
  p53 activation efficacy: 79.5057 and 58.391
[1]; Homo sapiens, HCT-116, read-out: p53 activation EC50
  pEC50: 4.78
[1]; read-out: p53 activation EC50
  pEC50: 4.97
[2]
  p53 activation EC50: inactive
  p53 activation efficacy: inactive
[3]
  p53 activation EC50: inactive
  p53 activation efficacy: inactive
[4]
  Viability EC50: inactive
  Viability efficacy: inactive

## Oc1ccc(C2(c3ccc(O)cc3)c3ccccc3-c3ccccc32)cc1 [4,4'-(9H-Fluorene-9,9-diyl)diphenol]
[1]
  p53 activation efficacy, cherry pick confirmation: 169.95
  p53 activation efficacy, primary screening: 157.361
[1]; [6]
  pEC50: 4.35
[1]; [7]
  pEC50: 4.32
[2]
  p53 activation EC50, cherry pick confirmation: inactive
  p53 activation EC50, primary screening: inactive
  p53 activation efficacy, cherry pick confirmation: inactive
  p53 activation efficacy, primary screening: inactive
[3]
  p53 activation EC50, cherry pick confirmation: inactive
  p53 activation EC50, primary screening: inactive
  p53 activation efficacy, cherry pick confirmation: inactive
  p53 activation efficacy, primary screening: inactive
[4]
  Viability EC50, primary screening: inactive
[4]; read-out: Viability EC50, cherry pick confirmation
  pEC50: 4.46 and 4.49 and 4.34
[4]; read-out: Viability EC50, primary screening
  pEC50: 4.31

## CN(C)c1ccc(C(=N)c2ccc(N(C)C)cc2)cc1 [Auramine hydrochloride]
[1]
  p53 activation EC50, cherry pick confirmation: inactive
  p53 activation efficacy, cherry pick confirmation: inactive
[1]; [9]
  pEC50: 5.40
[1]; [11]
  Emax: 37.6%
[2]
  p53 activation EC50, cherry pick confirmation: inactive
  p53 activation EC50, primary screening: inactive
  p53 activation efficacy, cherry pick confirmation: inactive
  p53 activation efficacy, primary screening: inactive
[3]
  p53 activation EC50, cherry pick confirmation: inactive
  p53 activation EC50, primary screening: inactive
  p53 activation efficacy, cherry pick confirmation: inactive
  p53 activation efficacy, primary screening: inactive
[4]
  Viability EC50, cherry pick confirmation: inactive
  Viability EC50, primary screening: inactive
  Viability efficacy, cherry pick confirmation: inactive
  Viability efficacy, primary screening: inactive

## COc1cccc2c1C(=O)c1c(O)c3c(c(O)c1C2=O)C[C@@](O)(C(=O)CO)C[C@@H]3O[C@H]1C[C@H](N)[C@H](O[C@@H]2CCCCO2)[C@H](C)O1 [Pirarubicin]
[1]; [8]
  pEC50: 5.12
[1]; [9]
  pEC50: 5.66
[1]; [10]
  Emax: 287%
[1]; [11]
  Emax: 142%
[2]
  p53 activation EC50, cherry pick confirmation: inactive
  p53 activation EC50, primary screening: inactive
  p53 activation efficacy, cherry pick confirmation: inactive
  p53 activation efficacy, primary screening: inactive
[3]
  p53 activation EC50, cherry pick confirmation: inactive
  p53 activation EC50, primary screening: inactive
  p53 activation efficacy, cherry pick confirmation: inactive
  p53 activation efficacy, primary screening: inactive
[4]
  Viability EC50, cherry pick confirmation: inactive
  Viability EC50, primary screening: inactive
  Viability efficacy, primary screening: inactive

## C=CCOC(Cn1ccnc1)c1ccc(Cl)cc1Cl (stereo not shown) [Imazalil]
[1]
  EC50, p53 activation, cherry pick confirmation: inactive
  Efficacy, p53 activation, cherry pick confirmation: inactive
[1]; Homo sapiens, HCT-116, read-out: EC50, p53 activation, primary screening
  pEC50: 4.30
[1]; Homo sapiens, HCT-116, read-out: Efficacy, p53 activation, primary screening
  Emax: 41.7%
[2]
  EC50, p53 activation, cherry pick confirmation: inactive
  EC50, p53 activation, primary screening: inactive
  Efficacy, p53 activation, cherry pick confirmation: inactive
  Efficacy, p53 activation, primary screening: inactive
[3]
  EC50, p53 activation, cherry pick confirmation: inactive
  EC50, p53 activation, primary screening: inactive
  Efficacy, p53 activation, cherry pick confirmation: inactive
  Efficacy, p53 activation, primary screening: inactive
[4]
  EC50, viability, cherry pick confirmation: inactive
  EC50, viability, primary screening: inactive
  Efficacy, viability, cherry pick confirmation: inactive
  Efficacy, viability, primary screening: inactive

## CC(C)CP(=S)([S-])CC(C)C.[Na+] [Sodium diisobutyldithiophosphinate]
[1]
  p53 activation EC50, primary screening: inactive
  p53 activation efficacy, cherry pick confirmation: 36.227
  p53 activation efficacy, primary screening: inactive
[1]; [6]
  pEC50: 5.65
[2]
  p53 activation EC50, cherry pick confirmation: inactive
  p53 activation efficacy, cherry pick confirmation: inactive
[3]
  p53 activation EC50, cherry pick confirmation: inactive
  p53 activation efficacy, cherry pick confirmation: inactive
[4]
  Viability EC50, cherry pick confirmation: inactive
  Viability EC50, primary screening: inactive
  Viability efficacy, cherry pick confirmation: inactive
  Viability efficacy, primary screening: inactive

## COc1cccc2c1cc([N+](=O)[O-])c1c(C(=O)[O-])cc3c(c12)OCO3.[Na+] [Sodium aristolochate-I]
[1]
  EC50, p53 activation, cherry pick confirmation: inactive
  Efficacy, p53 activation, cherry pick confirmation: inactive
  Efficacy, p53 activation, primary screening: 50.4333
[1]; [5]
  pEC50: 5.44
[2]
  EC50, p53 activation, cherry pick confirmation: inactive
  EC50, p53 activation, primary screening: inactive
  Efficacy, p53 activation, cherry pick confirmation: inactive
  Efficacy, p53 activation, primary screening: inactive
[3]
  EC50, p53 activation, cherry pick confirmation: inactive
  EC50, p53 activation, primary screening: inactive
  Efficacy, p53 activation, cherry pick confirmation: inactive
  Efficacy, p53 activation, primary screening: inactive
[4]
  EC50, viability, cherry pick confirmation: inactive
  EC50, viability, primary screening: inactive
  Efficacy, viability, primary screening: inactive
[4]; read-out: EC50, viability, cherry pick confirmation
  pEC50: 5.01
